We go through one molecule from patent US9303017B2, “2,5-disubstituted-pyridyl nicotinic ligands, and methods of use thereof” (Georgetown University, priority 2011, dated 2016).

A value given as a limit tells only on which side of the number the result lay.

Experiment [1] concerns the target rat α3β4 nAChRs (Rattus norvegicus (Rat), UniProt P04757+P12392). As to the kind of experiment: 86Rb+ efflux assay (activation and desensitization), α3β4. The format is cell-based. The conditions noted are these: read-out: IC50(10′) α3β4 nAChRs. On the procedure:
In Vitro Effects on nAChR Function. […] Their agonist activities were assessed by measuring stimulated ^86Rb^+ efflux from stably transfected cells, either expressing human α4β2 nAChRs or rat α3β4 receptors.
Cell Lines and Cell Culture. The cell lines expressing defined rat nAChR subtypes were established previously by stably transfecting HEK 293 cells with rat nAChR subunit genes. The cell line expressing human α4β2 nAChRs, YXα4β2H1, was established recently. These cell lines were maintained in minimum essential medium (MEM) supplemented with 10% fetal bovine serum, 100 units/mL penicillin G, […] and selective antibiotics at 37° C. with 5% CO2 in a humidified incubator. Fetal bovine serum was provided by Gemini Bio-Products (Woodland, Calif.). Tissue culture medium and antibiotics were obtained from Invitrogen Corporation (Carlsbad, Calif.), unless otherwise stated.
^86Rb^+ Efflux Assay. Functional properties of compounds at nAChRs expressed in the transfected cells were measured using ^86Rb^+ efflux assays as described previously. In brief, cells expressing human α4β2 or rat α3β4 nAChRs were plated into 24-well plates coated with poly-D-lysine. The plated cells were grown at 37° C. for 18 to 24 hour to reach 85-95% confluence. The cells were then incubated in growth medium (0.5 mL/well) containing ^86Rb^+ (2 μCi/mL) for 4 hour at 37° C. The loading mixture was then aspirated, and the cells were washed four times with 1 mL buffer (15 mM HEPES, 140 mM NaCl, 2 mM KCl, 1 mM MgSO4, 1.8 mM CaCl2, 11 mM Glucose, pH 7.4). One mL of buffer with or without compounds to be tested was then added to each well. After incubation for 2 min, the assay buffer was collected for measurements of ^86Rb^+ released from the cells. Cells were then lysed by adding 1 mL of 100 mM NaOH to each well, and the lysate was collected for determination of the amount of ^86Rb^+ that was in the cells at the end of the efflux assay. Radioactivity of assay samples and lysates was measured by liquid scintillation counting. Total loading (cpm) was calculated as the sum of the assay sample and the lysate of each well. The amount of ^86Rb^+ efflux was expressed as a percentage of ^86Rb^+ loaded. […] For obtaining EC50 and Emax values, stimulation curves were constructed in which 8 different concentrations of a ligand were included in the assay. […] EC50, Emax and IC50(10′) values were determined by nonlinear least-squares regression analyses (GraphPad, San Diego, Calif.).
The functional properties of the ligands were determined by ^86Rb^+ efflux assays in cells expressing α3β4 and α4β2 nAChR subtypes. The functional activity of each ligand was measured for its agonism, antagonism and desensitization ability. Agonist activity for each of the ligands was tested at eight different concentrations. […] The full concentration-effect curves generated potency (EC50) and efficacy (Emax) of each ligand. […] We tested each ligand for antagonist activity at eight concentrations. The potency (IC50(0′)) of each ligand as an antagonist was derived from the full concentration-effect curves.

The subject of experiment [2] is alcohol preferring rats (P rats). As to the kind of experiment: Alcohol intake in alcohol preferring rats. The experiment is classed as in vivo, rat. On the procedure: In Vivo Effects on Alcohol Intake in Rats. In our initial behavioral studies in an animal model, effects of compound (S)-15 (Scheme 1, YL-1-127) on alcohol self-administration in alcohol preferring rats (P rats) were assessed. Three doses of (S)-15 were tested: 0.33, 1 and 3 mg/kg (s.c.).
General Procedures for Effect on Alcohol Intake in Rats. Adult male rats obtained from a colony of selectively-bred alcohol preferring rats (P rats) maintained at Indiana University School of Medicine. Rats were housed in cages that were fitted with two 100 mL Richter tubes for the recording of water and alcohol intake. Animals were kept under a constant room temperature of 22±1° C. and 12:12 light-dark cycle (7:00 a.m.-7:00 p.m. dark). Animals were fed 5001 Rodent Chow (Lab Diet, Brentwood, Mo., USA). All procedures were approved by the IACUC at Duke University Medical Center.
After a week of handling and habituation, rats were given free access to water in a graduated Richter tube for 1 day. Next, they were given free access only to a solution of 10% (v/v) alcohol for 3 consecutive days. Thereafter, rats were given free access to water and a solution of alcohol throughout the study. Water and alcohol intake were indexed by graduated Richter drinking tubes.
An acute study was conducted to determine a dose-response for compound (S)-15 (YL-1-127). After the establishment of a stable baseline for alcohol and water intake rats were injected subcutaneously with 0.33, 1 and 3 mg/kg of YL-1-127 or the same volume of the vehicle ([…]). Alcohol and water intake were measured at, 2, 4, 6 and 24 hr after the drug administration. The preference for alcohol solution, [(alcohol volume)/(alcohol+water volume)×100], was calculated for the same time points as alcohol and water intake. All animals (n=18) received all treatments following a crossover design with random assignment. The interval between injections was at least 3 days.
Solution of 10% (v/v) alcohol was prepared twice weekly from a solution of […] mixed with tap water. Solutions of YL-1-127 was prepared weekly in 100 mM HCl solution and isotonic saline and was injected subcutaneously in a volume of 1 mL/kg.
The data were assessed by the analysis of variance with a between subjects factor of strain and a repeated measures factor of YL-1-127 dose. Significance was determined at p

As to `CCCCC#Cc1cnc(C)c(OC[C@@H]2CCN2)c1` [(S)-15, (S)-3-(azetidin-2-ylmethoxy)-5-(hex-1-ynyl)-2-methylpyridine], the IC50 (usually the midpoint of a concentration-inhibition curve) in experiment [1] is > 10 µM. In addition, the alcohol intake entry is reported as “reduced alcohol intake significantly” in experiment [2] (1 mg/kg s.c., 24 h, p<0.05); “significant effects” in experiment [2] (3 mg/kg s.c., 6 h, p<0.05); “significant effects” in experiment [2] (3 mg/kg s.c., 24 h, p<0.0005); “significantly reduced alcohol intake in a dose dependent manner” in experiment [2] (0.33, 1 and 3 mg/kg s.c., compared with control vehicle).
